Measurements reported in US20260034064A1, “COMPOSITIONS FOR THE TREATMENT OF CFTR-MEDIATED DISEASES” (Vertex Pharmaceuticals Incorporated, priority 2022, published 2026).

Columns and labels:
[1] = Thermodynamic stability of solid forms of Compound I; format: physicochemical; settings: compared with other forms of Compound I; no method or data given
[2] = Bioavailability of the solid form of Compound I; settings: no species, dose or data printed

## Cc1nn(C)cc1S(=O)(=O)NC(=O)c1ccc(-n2ccc(OCC(C)(C)C(F)(F)F)n2)nc1N1C[C@@H](C)CC1(C)C [Crystalline Compound I Form A, N-(1,3-dimethylpyrazol-4-yl)sulfonyl-6-[3-(3,3,3-trifluoro-2,2-dimethyl-propoxy)pyrazol-1-yl]-2-[(4S)-2,2,4-trimethylpyrrolidin-1-yl]pyridine-3-carboxamide]
[1]
  thermodynamic stability of the solid form: most thermodynamically stable form
[2]
  bioavailability: good bioavailability
